Experimental data from paper PMC4948010 (ACS Medicinal Chemistry Letters, 2016).

Columns and labels:
human recombinant GK = target: T1, human recombinant GK (Homo sapiens, UniProt P35557); assay: Glucokinase EC50 assay; format: biochemical; settings: compared with the other acyclic C5 analogues of Table 1
T1 sequence (P35557 1-465): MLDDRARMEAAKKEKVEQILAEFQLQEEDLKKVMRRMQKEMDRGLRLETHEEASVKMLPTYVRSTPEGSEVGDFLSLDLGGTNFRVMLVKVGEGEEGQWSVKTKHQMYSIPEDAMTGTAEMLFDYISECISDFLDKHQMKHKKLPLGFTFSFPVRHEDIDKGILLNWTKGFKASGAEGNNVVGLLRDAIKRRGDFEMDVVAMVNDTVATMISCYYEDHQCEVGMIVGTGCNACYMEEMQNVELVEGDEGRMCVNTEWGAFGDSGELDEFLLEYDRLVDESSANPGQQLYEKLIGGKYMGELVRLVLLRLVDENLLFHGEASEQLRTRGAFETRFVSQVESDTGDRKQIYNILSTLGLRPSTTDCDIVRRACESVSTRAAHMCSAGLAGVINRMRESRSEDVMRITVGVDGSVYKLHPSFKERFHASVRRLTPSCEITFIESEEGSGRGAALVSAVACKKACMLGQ

[1] = Intrinsic clearance in rat liver microsomes; format: in vitro ADME
ob/ob mice = assay: Oral glucose tolerance test in ob/ob mice; format: in vivo, mouse; settings: doses 3, 10 and 30 mg/kg oral
male Sprague–Dawley rats = assay: Fed blood glucose test in male Sprague-Dawley rats; format: in vivo, rat; settings: doses 3, 10, 30 and 100 mg/kg oral
[2] = Metabolic identification studies; format: in vitro ADME

Compound: CNC(=O)Nc1cc(Oc2cncc(C)c2)c(C(C)CO)cn1 (centres unmarked) [Compound 5]
- loss in potency (human recombinant GK): approximately 5 fold

Compound: CNC(=O)Nc1cc(Oc2cncc(C)c2)c([C@H]2C[C@@H](O)C2)cn1 [Compound 7]
- microsomal CLint [1]: 24 µL/min/mg
- blood glucose levels during an oral glucose tolerance test (ob/ob mice): dose-proportional decrease

Compound: CNC(=O)Nc1cc(Oc2cncc(OC)c2)c([C@H]2CCCOC2)cn1 [Compound 21]
- blood glucose levels (male Sprague–Dawley rats): dose-proportional decrease
- site of oxidation (metabolic identification) [2]: THP ring as one site of oxidation
